# In publication PMC9502993 (Pharmaceuticals, 2022):
# Several values for one entry are separate records, joined by “and”; a condition that tells them apart may be missing. Identical values can stand only once. Like-named read-outs stand apart in the source and are kept apart here.
# What was measured:
# [1] = tested on: MDA-MB-231 cell line; parameters: method as in PMID 32470302; conditions: MDA-MB-231, 100 nM ref 39; cited from earlier work
# [2] = tested on: HepG2 cells; assay: In Vitro Micronuclei Plus assay (flow cytometry)
# [3] = tested on: primary immune cells; conditions: primary immune cells ref 9; cited from earlier work
# [4] = tested on: Calu-3 cells; conditions: human, 25 µM
# [5] = tested on: Caco-2 cells; conditions: human, 25 µM
# [6] = biological target: T1, P-glycoprotein (Homo sapiens, UniProt P08183); conditions: cited from earlier work
# T1 construct: endogenous in cells; host or cells: Caco-2 (high P-gp), Calu-3 (low P-gp)
# T1 sequence (P08183 whole entry): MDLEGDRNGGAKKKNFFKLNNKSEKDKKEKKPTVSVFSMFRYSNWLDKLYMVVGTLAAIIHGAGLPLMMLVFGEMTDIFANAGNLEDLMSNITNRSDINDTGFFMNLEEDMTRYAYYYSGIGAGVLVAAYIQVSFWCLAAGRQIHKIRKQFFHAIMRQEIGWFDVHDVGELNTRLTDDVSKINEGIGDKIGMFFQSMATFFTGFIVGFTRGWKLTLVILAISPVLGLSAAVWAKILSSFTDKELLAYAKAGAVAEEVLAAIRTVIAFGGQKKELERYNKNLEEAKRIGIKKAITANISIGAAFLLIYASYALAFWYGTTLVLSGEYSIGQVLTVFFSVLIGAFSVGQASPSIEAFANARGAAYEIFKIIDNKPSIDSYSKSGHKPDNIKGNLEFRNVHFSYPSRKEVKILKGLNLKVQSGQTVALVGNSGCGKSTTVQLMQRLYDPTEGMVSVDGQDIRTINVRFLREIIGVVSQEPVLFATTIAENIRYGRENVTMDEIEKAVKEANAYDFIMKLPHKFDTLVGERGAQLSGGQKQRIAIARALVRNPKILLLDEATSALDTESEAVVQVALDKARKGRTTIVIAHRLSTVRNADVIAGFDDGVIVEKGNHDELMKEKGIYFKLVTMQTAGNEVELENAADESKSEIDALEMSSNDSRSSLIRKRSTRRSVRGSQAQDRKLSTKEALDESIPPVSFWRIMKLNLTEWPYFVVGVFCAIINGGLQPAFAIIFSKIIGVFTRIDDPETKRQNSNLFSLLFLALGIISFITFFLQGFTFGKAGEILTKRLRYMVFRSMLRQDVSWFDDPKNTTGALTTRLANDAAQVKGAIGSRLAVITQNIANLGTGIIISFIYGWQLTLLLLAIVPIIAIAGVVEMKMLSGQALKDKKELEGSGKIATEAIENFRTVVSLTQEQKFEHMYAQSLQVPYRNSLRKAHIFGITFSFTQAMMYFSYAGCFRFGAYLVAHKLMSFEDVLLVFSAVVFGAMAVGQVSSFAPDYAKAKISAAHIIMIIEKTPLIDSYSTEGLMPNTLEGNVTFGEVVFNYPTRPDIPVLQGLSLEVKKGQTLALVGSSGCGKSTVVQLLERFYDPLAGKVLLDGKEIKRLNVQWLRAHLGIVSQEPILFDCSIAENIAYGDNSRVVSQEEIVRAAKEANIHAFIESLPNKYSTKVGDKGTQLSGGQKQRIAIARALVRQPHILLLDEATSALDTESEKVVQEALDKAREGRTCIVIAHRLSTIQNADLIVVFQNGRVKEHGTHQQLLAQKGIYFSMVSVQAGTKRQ
# [7] = Stability assay in human liver microsomes; type: in vitro ADME; conditions: pH 7.4, human liver microsomes 0.5 mg/mL
# Experimental: The reaction was started with 1 mM NADPH diluted in potassium phosphate buffer. As control, samples without NAPDH were used. After various time points (0 h, 1 h, 2 h, 4 h), the reaction was stopped by adding ice-cold acetonitrile. The samples were centrifuged (5 min, 4 °C, 10,000× g) and supernatant was stored at −80 °C until the remaining drug concentration was determined by LC-MS/MS as described in detail below. The concentrations of the drugs were plotted against time and the elimination constant (k) was calculated from the slope (m):m = −k
# Equation to determine half-life:T1/2 = 0.693/K
# Equation to determine intrinsic clearance:Cl = Ln(2) × 1000/T1/2/protein concentration
# [8] = tested on: Calu-3 cell barrier; conditions: human, 24 h, 200 µM
# [9] = tested on: Caco-2 cell barrier; conditions: human, 200 µM
# [10] = tested on: Caco-2 cell barrier; assay: Cell barrier integrity (TEER, cellZscope2); type: cell-based
# [11] = tested on: HEK293T cells; assay: cAMP assay (GloSensor luciferase), GPCR off-target
# [12] = tested on: HEK293T cells; assay: IP3 assay, GPCR off-target; type: cell-based
# [13] = tested on: HEK293T cells; assay: Ca2+-release assay (Fluo-8-AM), GPCR off-target; type: cell-based
# Experimental: Next, 50,000 HEK293T cells were seeded in a 96-well poly-D-lysine-coated plate and incubated at 37 °C for 24 h. Cells were incubated with 4 µM Fluo-8-AM in HBSS for 1 h at 37 °C. After 1 h, the Fluo-8/HBSS was replaced by 100 µL HBSS. Five images per second were taken using an ImageXpress Micro Confocal High Content Imaging System (Molecular Device, San Jose, CA, USA). […] An image was taken every second for the next 20 s. The MetaXpress Software Version 6.7.1.157 (San Jose, CA, USA) was used to analyze the data. A threshold of fluorescence intensity was defined using cells before treatment and all cells with a fluorescence signal above the threshold level were counted and related to all cells.
# [14] = tested on: HepG2 cells; assay: Cell viability assay (Orangu WST-8, formazan-based)
# Experimental: For the cell viability assay, HepG2 cells were incubated with various
# normalized to the absorbance of the respective DMSO value to calculate cell viability. The experiments were performed in biological
# (1 picture or pasted object on this page, not shown here)
# [15] = tested on: lung fibroblast cell line MRC-5; parameters: method as in PMID 31931103; conditions: MRC-5 ref 5; cited from earlier work
# [16] = tested on: primary dendritic cells; parameters: method as in PMID 35336926; conditions: primary dendritic cells ref 9; cited from earlier work
# [17] = tested on: Calu-3 cells; assay: Cell viability assay (Orangu WST-8, formazan-based)
# [18] = tested on: T cells; parameters: method as in PMID 35336926, PMID 1360266; conditions: T cells ref 9, 34; cited from earlier work
# [19] = tested on: colon cancer cell line HT29; conditions: HT29 ref 17; cited from earlier work
# [20] = tested on: primary M2 macrophages; parameters: method as in PMID 35336926; conditions: primary M2 macrophages ref 9; read-out: CC50 (no cytotoxic effects up to); cited from earlier work
# [21] = tested on: Calu-3 cell barrier; assay: Transport assay across cell barrier
# [22] = tested on: Chikungunya virus; parameters: method as in PMID 31931103; conditions: Chikungunya virus ref 5; read-out: EC50 (50% reduction of the virus titer); cited from earlier work
# [23] = tested on: various viruses, such as corona- and Ebolaviruses; conditions: cited from earlier work
# [24] = tested on: primary M1 macrophages; parameters: method as in PMID 35336926; conditions: primary M1 macrophages ref 9; cited from earlier work
# [25] = tested on: Caco-2 cells; assay: Cellular uptake assay (LC-MS/MS)
# [26] = tested on: MERS-CoV; conditions: MERS-CoV ref 6; read-out: EC50 (50% reduction of the virus titer); cited from earlier work
# [27] = tested on: lung cancer cell line A549; parameters: method as in PMID 31931103; conditions: A549 ref 5; cited from earlier work
# [28] = mice, formulated in hydroxypropyl-β-cyclodextrin, intraperitoneal ref 30; cited from earlier work
# [29] = Cell viability assay (Orangu WST-8, formazan-based); conditions: human, HEK293T cells
# [30] = tested on: HEK293T cells; assay: as above; conditions: 48 h
# [31] = tested on: primary monocytes; parameters: method as in PMID 35336926; conditions: primary monocytes ref 9; cited from earlier work
# [32] = tested on: hepatocellular carcinoma cell line Huh-7; conditions: Huh-7 ref 6; cited from earlier work
# [33] = tested on: HeLa; conditions: HeLa ref 6; cited from earlier work
# [34] = tested on: Caco-2 cell barrier; assay: Transport assay across cell barrier
# [35] = tested on: non-transformed primary cells; conditions: several non-transformed primary cells ref 6, 20, 30; cited from earlier work
# [36] = tested on: Calu-3 cells; assay: Cellular uptake assay (LC-MS/MS)
# [37] = Cell viability assay (Orangu WST-8, formazan-based); conditions: human, Caki-2 cells
# [38] = tested on: Caki-2 cells; assay: as above; conditions: 48 h
# [39] = tested on: HCoV-229E; conditions: HCoV-229E ref 6; read-out: EC50 (50% reduction of the virus titer); cited from earlier work
# [40] = tested on: Caco-2 cells; assay: Cell viability assay (Orangu WST-8, formazan-based); conditions: for effect on cell viability: 48 h
# [41] = 10 µM ionomycin, positive control
smiles,measurement,setting,value
"COc1cc2c(c(OC)n1)[C@]1(O)[C@H](O)[C@H](CN(C)C)[C@@H](c3ccccc3)[C@]1(c1ccc(C#N)cc1)O2 [zotatifin, reference compound]",effect on cell cycle and apoptosis,[1],induces a G2 cell cycle block and apoptosis
same,clastogenic effects (micronuclei),"[2]; 10 nM only, not concentration dependent",some clastogenic and aneugenic effects
CONC(=O)[C@H]1[C@@H](O)[C@@]2(O)c3c(OC)cc(OC)cc3O[C@@]2(c2ccc(OC)cc2)[C@@H]1c1ccccc1 [CR31B (-)],cytotoxicity compared with silvestrol,[3],comparable cytotoxic effects to those of silvestrol
"Cc1ccc(-c2cc(C(F)(F)F)nn2-c2ccc(S(N)(=O)=O)cc2)cc1 [celecoxib, reference compound]",uptake rate,[4],about 2.5 ng/µg protein
same,uptake rate,[5],about 2.5 ng/µg protein
same,substrate of P-glycoprotein,[6],not a substrate of P-glycoprotein
same,half-life at 10 µM,[7]; 10 µM,138 ± 30 min
same,microsomal CLint at 10 µM,"[7]; 10 µM, read-out: intrinsic clearance",10.5 ± 2 µL/min/mg
NC(=O)N1c2ccccc2C=Cc2ccccc21 [carbamazepine],transport rate,[8],74%
same,transport rate,[9]; 4 h,approx. 45%
"O=C(O)CN(CCOCCOCCN(CC(=O)O)CC(=O)O)CC(=O)O [EGTA, reference compound]",effect on TEER readings (cell barrier integrity),"[10]; 10 mM, positive control",caused a drop in TEER readings
"CC(C)Cc1ccc(C(C)C(=O)O)cc1 (centres unmarked) [ibuprofen, reference compound]",genotoxicity by the criteria of OECD guideline 487,[2]; positive and negative control,no effects
NC(N)=Nc1nc(CSCCC(N)=NS(N)(=O)=O)cs1 [famotidine],transport rate,[8],8.3%
same,transport rate,[9]; 4 h,0.7%
same,transport rate,[9]; 24 h,1.3%
"C=C[C@@]1(C)CC(=O)[C@]2(O)[C@@]3(C)[C@@H](O)CCC(C)(C)[C@@H]3[C@H](O)[C@H](OC(C)=O)[C@@]2(C)O1 [forskolin, reference compound]",induction of cAMP formation,"[11]; 5 µM forskolin, positive control",induced significant increases
"C[C@H](CCC(=O)O)C[C@H](C)C[C@H](C)C(=O)/C=C(\O)[C@H](C)C[C@H](C)C/C=C/[C@@H](C)[C@@H](O)[C@@H](C)[C@@H](O)C[C@@H]1CC[C@@](C)([C@H]2CC[C@@](C)([C@@H](C)O)O2)O1 [ionomycin, reference compound]",induction of IP3 synthesis,[12]; [41],induced significant increases
same,induction of Ca2+-release,[13]; [41],induced significant increases
COC(=O)[C@H]1[C@@H](O)[C@@]2(O)c3c(OC)cc(O[C@@H]4O[C@@H]([C@H](O)CO)CO[C@H]4OC)cc3O[C@@]2(c2ccc(OC)cc2)[C@@H]1c1ccccc1 [silvestrol],effect on cell viability,[14]; 48 h,only minor effects
same,reduction of viability,[14]; concentrations up to 1000 nM,about 50%
same,cytotoxicity (no cytotoxicity up to),[15],> 50 µM
same,induction of IP3 synthesis,[12]; silvestrol,did not significantly induce
same,substrate of P-glycoprotein,[6],substrate
same,effect on TEER readings (cell barrier integrity),"[10]; 50 and 100 nM, 20 h",reduced TEER readings only slightly
same,cytotoxicity (no cytotoxic effects up to),[16],> 100 nM
same,effect on cell viability,[17]; 48 h,did not reduce viability below 50%
same,reduction of viability,[17]; concentrations up to 1000 nM,about 50%
same,cytotoxicity (no cytotoxic effects up to),[18],> 100 nM
same,CC50,[19],0.7 nM
same,CC50,[20],> 100 nM
same,transport rate,"[21]; 50 nM, 24 h",7.8%
same,transport rate,"[21]; 100 nM, 4 h",0.8%
same,transport rate,"[21]; 100 nM, 24 h",10.6%
same,EC50,[22],~5 nM
same,reduction of virus titers,[23],up to 4 log phases
same,EC50,[23]; read-out: EC50 for inhibition of virus replication,1 to 100 nM
same,EC50,"[23]; various viruses, such as corona- and Ebolaviruses (abstract), read-out: EC50",~5 nM
same,CC50,[24],45.6 nM and 46 nM
same,induction of cAMP synthesis,"[11]; silvestrol 10, 50, 100 nM",did not significantly induce
same,cellular uptake (maximum),"[25]; 25 nM, 2 and 4 h",about 2.5 pg/µg protein
same,uptake related to used silvestrol,"[25]; 25 nM, at maximum",≈ 1.3%
same,change of intracellular silvestrol level on inhibition of P-glycoprotein,[25]; preincubated with 1 µM cyclosporine 60 min,leads to an increase in intracellular silvestrol levels
same,clastogenic effects (micronuclei),[2]; 50 nM,clastogenic effects
same,aneugenic effects (hypodiploid cells),[2]; silvestrol concentrations up to 50 nM,no aneugenic effects
same,EC50,[26],~5 nM
same,CC50,[27],9.42 nM
same,intraperitoneal systemic availability,[28],100%
same,CC50 at 48 h,[29],16 nM
same,CC50,[30],15.9 nM
same,CC50,[31],29 nM
same,induction of Ca2+-release,"[13]; silvestrol 10, 50, 100 nM",did not significantly induce
same,half-life at 100 nM,[7]; 100 nM,696 ± 72 min
same,microsomal CLint at 100 nM,"[7]; 100 nM, read-out: intrinsic clearance",1.7 ± 0.5 µL/min/mg
same,CC50,[32],30 nM
same,CC50,[33],5 nM
same,transport rate,"[34]; 50 nM, 24 h",1.3%
same,transport rate,"[34]; 100 nM, 4 h",0.5%
same,transport rate,"[34]; 100 nM, 24 h",1.9%
same,cytotoxicity,[35],no major cytotoxicity
same,uptake related to used amount of silvestrol,[36]; at maximum,≈ 3.7%
same,cellular uptake (maximum),[36]; concentration- and time-dependent,about 7.7 pg/µg protein
same,CC50 at 48 h,[37],37 nM
same,CC50,[38],37.2 nM
same,EC50,[39],~5 nM
same,effect on cell viability,[40],did not reduce viability below 50%
same,effect on cell viability,[40]; listed as Silvestrol,only minor effects
same,reduction of viability,[40]; concentrations up to 1000 nM,about 50%
same,change of cytotoxicity on inhibition of P-glycoprotein,"[40]; preincubated with 1 µM cyclosporine 60 min, then 48 h",increased the cytotoxic potential
